Here are results for two compounds from ChEMBL document CHEMBL1201862, “PubChem BioAssay data set” (2004).

Activity calls are given as the source filed them.

A word on the EC50: it is the midpoint of the concentration-response curve. As a reminder, the IC50 is the concentration that gives 50% inhibition. What is called AC50 is the midpoint of the concentration-response curve, whichever way the signal moves.

The target of assay [1] is T1, RNA-binding protein pos-1 (Caenorhabditis elegans, UniProt G5EF15).
T1 sequence (G5EF15 whole entry): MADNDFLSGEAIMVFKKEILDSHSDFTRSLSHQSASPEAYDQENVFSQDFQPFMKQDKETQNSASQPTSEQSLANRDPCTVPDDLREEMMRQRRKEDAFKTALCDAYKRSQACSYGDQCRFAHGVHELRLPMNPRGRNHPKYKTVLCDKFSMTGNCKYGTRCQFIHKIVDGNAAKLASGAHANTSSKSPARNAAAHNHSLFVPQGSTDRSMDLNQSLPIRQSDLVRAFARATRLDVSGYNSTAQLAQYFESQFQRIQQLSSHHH
In words: disruptors of C. elegans POS-1 RNA interaction – biochemical, fluorescence polarization, dose response (AID 1964).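 Note: purified POS-1 fused to maltose binding protein made in E. coli; potency of compounds blocking POS-1 binding to fluorescent RNA.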 On the technique in general: In fluorescence polarisation assays a small probe gives low polarisation when free and higher when bound to something large.

The target in assay [2] is T2, Zinc finger protein mex-5 (Caenorhabditis elegans, UniProt Q9XUB2).
T2 sequence (Q9XUB2 whole entry): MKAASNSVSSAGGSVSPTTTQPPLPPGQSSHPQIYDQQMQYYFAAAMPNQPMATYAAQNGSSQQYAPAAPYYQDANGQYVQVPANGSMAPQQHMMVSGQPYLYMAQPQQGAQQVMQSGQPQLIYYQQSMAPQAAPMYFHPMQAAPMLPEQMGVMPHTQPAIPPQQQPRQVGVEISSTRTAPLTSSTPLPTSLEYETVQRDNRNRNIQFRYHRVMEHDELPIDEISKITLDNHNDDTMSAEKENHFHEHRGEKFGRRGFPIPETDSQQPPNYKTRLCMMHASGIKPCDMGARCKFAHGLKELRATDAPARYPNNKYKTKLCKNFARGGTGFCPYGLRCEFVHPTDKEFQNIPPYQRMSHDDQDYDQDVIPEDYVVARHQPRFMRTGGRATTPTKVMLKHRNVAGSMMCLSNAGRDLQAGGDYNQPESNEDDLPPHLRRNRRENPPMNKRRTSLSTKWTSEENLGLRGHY
In words: potency of MEX-5 RNA-binding blockers – biochemical, C. elegans, fluorescence polarization, dose response (AID 1960).

In assay [3] the target is T3, Sentrin-specific protease 8 (Homo sapiens, UniProt Q96LD8).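 Note: luminescence read-out of SENP8 inhibition, dose-response confirmation following an ultra-high-throughput screen.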
T3 sequence (Q96LD8 whole entry): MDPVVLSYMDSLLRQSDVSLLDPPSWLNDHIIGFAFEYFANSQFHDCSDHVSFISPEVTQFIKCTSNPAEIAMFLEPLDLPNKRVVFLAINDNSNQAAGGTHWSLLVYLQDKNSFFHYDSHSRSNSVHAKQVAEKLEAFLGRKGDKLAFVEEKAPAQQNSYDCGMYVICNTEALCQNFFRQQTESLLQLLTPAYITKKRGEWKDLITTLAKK
Type of assay: functional.

In assay [4] the target is T4, Endoribonuclease toxin MazF (Escherichia coli K-12, UniProt P0AE70).
T4 sequence (P0AE70 whole entry): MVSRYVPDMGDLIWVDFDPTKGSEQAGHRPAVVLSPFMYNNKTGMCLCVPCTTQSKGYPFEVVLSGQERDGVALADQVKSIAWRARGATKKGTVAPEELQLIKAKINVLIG
Put plainly: substrate-only fluorescence increase artefacts – biochemical, single-stranded RNase substrate, counter-screen for MazEF activator project, dose response (AID 588502). Type of assay: functional.

For assay [5], the target named is Serine/threonine-protein phosphatase PP1-alpha catalytic subunit (Homo sapiens, UniProt P62136). Put plainly: inhibition of protein phosphatase 1 activity – biochemical, fluorescence, dose response (AID 2394).
Sequence of Serine/threonine-protein phosphatase PP1-alpha catalytic subunit (P62136 whole entry): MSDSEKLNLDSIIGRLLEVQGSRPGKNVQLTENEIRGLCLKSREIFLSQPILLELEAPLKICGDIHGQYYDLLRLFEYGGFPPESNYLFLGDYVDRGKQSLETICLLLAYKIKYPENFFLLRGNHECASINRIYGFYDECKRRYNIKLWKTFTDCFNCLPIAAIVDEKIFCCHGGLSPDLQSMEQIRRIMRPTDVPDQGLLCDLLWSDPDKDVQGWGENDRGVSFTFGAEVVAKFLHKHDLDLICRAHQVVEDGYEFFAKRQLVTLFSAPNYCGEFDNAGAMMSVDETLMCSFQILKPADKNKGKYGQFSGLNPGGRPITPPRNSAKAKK
Assay [6] deals with Serine/threonine-protein phosphatase (Homo sapiens, UniProt Q9BPW0). In words: inhibition of protein phosphatase 5 activity – biochemical, fluorescence, dose response (AID 2395).
Sequence of Serine/threonine-protein phosphatase (Q9BPW0 whole entry): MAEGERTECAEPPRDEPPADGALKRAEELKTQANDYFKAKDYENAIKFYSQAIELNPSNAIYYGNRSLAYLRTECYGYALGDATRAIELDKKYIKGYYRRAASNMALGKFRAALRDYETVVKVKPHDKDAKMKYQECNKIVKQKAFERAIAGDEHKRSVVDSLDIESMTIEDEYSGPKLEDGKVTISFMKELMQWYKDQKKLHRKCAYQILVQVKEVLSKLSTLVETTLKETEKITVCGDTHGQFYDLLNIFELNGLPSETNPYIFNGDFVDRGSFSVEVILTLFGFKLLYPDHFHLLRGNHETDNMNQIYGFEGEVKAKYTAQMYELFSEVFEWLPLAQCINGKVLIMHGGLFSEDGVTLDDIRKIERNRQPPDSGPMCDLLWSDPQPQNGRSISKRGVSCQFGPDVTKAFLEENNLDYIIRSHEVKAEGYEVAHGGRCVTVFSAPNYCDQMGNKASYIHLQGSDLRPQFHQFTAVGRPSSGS
The target in assay [7] is T5, Microphthalmia-associated transcription factor (Homo sapiens, UniProt O75030).
T5 sequence (O75030 whole entry): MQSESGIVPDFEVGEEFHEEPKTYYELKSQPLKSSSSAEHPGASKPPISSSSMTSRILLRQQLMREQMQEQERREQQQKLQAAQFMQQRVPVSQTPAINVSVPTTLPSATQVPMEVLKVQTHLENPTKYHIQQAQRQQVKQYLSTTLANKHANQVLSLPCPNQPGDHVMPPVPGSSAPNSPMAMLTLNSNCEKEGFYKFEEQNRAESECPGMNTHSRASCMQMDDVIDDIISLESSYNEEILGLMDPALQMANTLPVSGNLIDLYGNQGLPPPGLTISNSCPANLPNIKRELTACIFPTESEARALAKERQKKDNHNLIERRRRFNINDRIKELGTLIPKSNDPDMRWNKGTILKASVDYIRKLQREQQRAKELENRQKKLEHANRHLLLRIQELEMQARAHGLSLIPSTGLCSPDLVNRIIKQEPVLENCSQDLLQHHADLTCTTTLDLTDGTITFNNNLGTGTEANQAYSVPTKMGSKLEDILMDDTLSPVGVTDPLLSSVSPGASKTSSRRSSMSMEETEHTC
Put plainly: reducers of TRPM1 reporter luminescence, concentration series – cell-based, SK-MEL-5, cherry-picked, set 3, MITF inhibitor project, dose response (AID 493073).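 Note: SK-MEL-5 melanoma cells with luciferase driven by the MITF target TRPM1 promoter.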 Type of assay: functional.

In another assay the target is T6, Protein RecA (Mycobacterium tuberculosis, UniProt P9WHJ3).
T6 sequence (P9WHJ3 whole entry): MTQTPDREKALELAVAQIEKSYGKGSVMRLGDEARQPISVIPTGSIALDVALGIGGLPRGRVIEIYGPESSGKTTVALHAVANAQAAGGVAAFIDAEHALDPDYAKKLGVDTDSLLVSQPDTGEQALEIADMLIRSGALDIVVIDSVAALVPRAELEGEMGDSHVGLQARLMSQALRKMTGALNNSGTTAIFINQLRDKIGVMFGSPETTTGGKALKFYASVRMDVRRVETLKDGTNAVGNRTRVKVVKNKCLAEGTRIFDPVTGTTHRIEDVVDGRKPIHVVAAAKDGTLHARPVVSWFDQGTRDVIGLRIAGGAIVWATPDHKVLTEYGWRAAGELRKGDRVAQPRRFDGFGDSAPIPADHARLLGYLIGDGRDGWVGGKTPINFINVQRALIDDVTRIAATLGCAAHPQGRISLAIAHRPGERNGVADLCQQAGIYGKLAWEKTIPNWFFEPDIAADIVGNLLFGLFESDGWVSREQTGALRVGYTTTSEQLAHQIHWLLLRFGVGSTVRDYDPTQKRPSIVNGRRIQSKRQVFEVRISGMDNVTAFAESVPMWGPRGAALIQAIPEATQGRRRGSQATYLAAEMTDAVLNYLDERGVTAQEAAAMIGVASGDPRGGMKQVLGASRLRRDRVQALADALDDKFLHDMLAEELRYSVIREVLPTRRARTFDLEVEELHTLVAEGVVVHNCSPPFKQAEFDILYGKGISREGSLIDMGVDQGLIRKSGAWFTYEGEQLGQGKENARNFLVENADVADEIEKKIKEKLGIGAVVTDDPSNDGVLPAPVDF
In words: Fluorescence Cell-Free Homogeneous Dose Retest to Identify Inhibitors of RecA-Intein Splicing Activity. [Related pubchem assays (depositor defined):AID2097, AID2223, AID489010, AID492950]. Type of assay: functional.

Assay [8] in a line: cytotoxicity in MITF-independent A375 cells – cell-based, CellTiter-Glo luminescence, dry powder, set 4, counter-screen for MITF inhibitor project, dose response (AID 624364).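 Note: A375 melanoma cells are MITF independent so this is a counter screen.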 It is filed as functional. As to conditions: A-375. In general terms: Cellular ATP, detected with luciferase, serves as a proxy for viable cell number.

Take `Oc1[nH]c2ccccc2c1N=Nc1ccc(F)cc1`: the EC50 is > 300 µM (not active) in [1], > 300 µM (inconclusive) in [2] and > 99 µM (inactive) in assay [4]. Moreover, the half-maximal inhibitory concentration (IC50) in assay [3] was 3.07 µM (active).

With `O=C1C(Nc2ccccc2)=C(N2CCCCC2)C(=O)c2ccccc21`, the 50% inhibitory concentration (IC50) in [5] and in assay [6] was > 67 µM (not active) each time. Further, the concentration at half-maximal activity (AC50) in [7] is 6.67 µM (active); in assay [8] it was 37.4 µM (active). In addition, the EC50 at Protein RecA was 2.21 µM (active).
